1 molecule from US20100221351A1, “Controlled Drug Delivery Using a Thermally Responsive Nanocapsule to Augment Cryoablation” (UNIVERSITY OF SOUTH CAROLINA, priority 2009, published 2010) can be followed below.

The data set can be described thus: Release of trehalose during dialysis into 1 L water at 37° C. The data set is classed as physicochemical. To be noted: 0.3 g trehalose in 2 ml water. As for the experimental part:
FIG. 2. Release of trehalose (0.3 g) into 1 L water during dialysis under 3 conditions: free dissolved, nanoencapsulated (NE) with cooling/heating between 22 and 37° C. (NE22-37C), and nanoencapsulated kept at 37° C. (NE37C) before dialysis.
This nanocapsule has been used to physically encapsulate a small molecular weight hydrophilic trehalose (Mw=342 Da) for its intracellular delivery and controlled release. […] Clearly, the free dissolved trehalose was completely released from the dialysis bag in ˜2 hr, while trehalose release from the other two conditions with nanoencapsulation is much slower. The release for the sample kept 37° C. (i.e., NE37C) reached equilibrium at approximately 4 hours while it is approximately 3 hours for the sample with cooling and heating between 22 and 37° C. (i.e., NE22-37C). Moreover, approximately 11.3 and 4.3 mg trehalose were still retained in the NE37C and NE22-37C samples under the equilibrium state, respectively. […] In other words, a quick release of the nanoencapsulated trehalose can be achieved by thermally cycling the trehalose loaded nanocapsule between 22 and 37° C.

Consider `OC[C@H]1O[C@H](O[C@H]2O[C@H](CO)[C@@H](O)[C@H](O)[C@H]2O)[C@H](O)[C@@H](O)[C@@H]1O` [free dissolved trehalose, trehalose], for which the “time to complete release of trehalose from the dialysis bag” value was about 2 h.
